In patent EP1369114A1, “Use of tryptophan metabolites as pharmaceutical agents” (Terness, Peter, Priv. Doz. Dr., priority 2002, dated 2003):

System: T cells activated with allogeneic dendritic cells
Assay: Allogeneic restimulation, with donor-specific or third-party DCs, of T cells activated with allogeneic DCs
Format: cell-based, human
Parameters: restimulation with donor-specific DCs: dose or concentration left out as unconfirmed
Description: • (a) Allogeneic T-cell response. DCs were infected with recombinant IDO-adeno-GFP (DC-IDO-GFP), IDO-adeno (DC-IDO) or with control adenoviruses (DC-adeno) at a MOI (multiplicity of infection) up to 500 for 2 days. Lymphocytes (PBMCs) were separated from peripheral blood of healthy donors by density gradient centrifugation and typed for HLA antigens. Only HLA-DR-different responder lymphocytes were used for DC-induced stimulation. Native DCs only, lymphocytes only, native DCs + allogeneic lymphocytes, DC-IDO-GFP + allogeneic lymphoytes, DC-IDO + allogeneic lymphoytes, DC-adeno + allogeneic lymphocytes (each time 10^5 DC + 10^5 lymphocytes in 0.2ml medium) were cultured in RPMI 1640 medium (Gibco BRL Life Technologies GmbH, Eggenstein, Germany) with 10% fetal calf serum (FCS) (final tryptophan concentration 5.25 mg/l = 25.69 uM) and Penicillin G/Streptomycin. After 5 days, ^3[H]-thymidin was added for 12hrs and the number of counts (counts per minute = cpm) determined in a (3-counter (Inotech Biosystems, Lansing, MI). In order to verify whether IDO expression or adenovirus infection harm the DCs, 10^5 cells were infected with IDO-adeno-GFP, IDO-adenovirus, or adenovirus only at a stepwise decreasing MOI (500, 250, 125, ........ 3.9) and cell viability was measured in FACS following double staining with 7-AAD and anti-CD83 antibody-PE. The percentage of dead cells never exceeded 30% for any MOI following IDO-adeno-GFP- or IDO-adeno-infection and 40% following adenovirus(control)-infection. Moreover, these values were not higher than those of native DCs cultured for the same period of time. […] After 2 days, cell proliferation was assessed by measuring ^3[H]-thymidin incorporation (cpm) as described. • (c) Tryptophan metabolite titration curves. […] After 2 days, ^3[H] thymidin was added and the number of counts recorded. […] After another 2 days, ^3[H] thymidin was added and cpm determined. […] 3[H] thymidin was added to all cultures and the number of counts (cpm) determined. • (e) Tryptophan titration curve. […]

Compound: Nc1ccccc1C(=O)CC(N)C(=O)O (stereo not drawn) [kynurenine]
- restimulation with third-party DCs (extremely high doses (1500µM or 750µM) of kynurenine): only minimal reactions
- restimulation with donor-specific DCs (kynurenine in primary stimulation, 5 days, washed): cannot be restimulated with DCs from the same donor
- restimulation with third-party DCs (medium or low doses (375µM - 47µM) of kynurenine): significant restimulation
